What was measured:
[1] = target: T1, Tyrosine-protein phosphatase non-receptor type 1 (Homo sapiens, UniProt P18031); assay: Competitive inhibition of recombinant human PTP1B using p-NPP as substrate assessed as inhibition constant incubated for 30 mins by Lineweaver-Burk plot analysis
T1 sequence (P18031 whole entry): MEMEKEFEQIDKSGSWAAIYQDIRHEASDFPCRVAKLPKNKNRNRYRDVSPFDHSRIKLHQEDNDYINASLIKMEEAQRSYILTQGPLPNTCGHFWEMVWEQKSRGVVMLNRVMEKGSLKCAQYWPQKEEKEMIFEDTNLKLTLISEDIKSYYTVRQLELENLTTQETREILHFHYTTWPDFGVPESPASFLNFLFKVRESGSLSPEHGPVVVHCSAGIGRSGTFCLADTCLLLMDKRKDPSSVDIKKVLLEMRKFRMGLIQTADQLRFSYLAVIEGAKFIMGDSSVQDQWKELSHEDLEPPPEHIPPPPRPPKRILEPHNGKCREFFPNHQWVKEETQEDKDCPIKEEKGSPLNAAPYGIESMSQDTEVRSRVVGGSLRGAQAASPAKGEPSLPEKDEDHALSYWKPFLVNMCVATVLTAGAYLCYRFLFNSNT

[2] = target: T1, Tyrosine-protein phosphatase non-receptor type 1; assay: Inhibition of recombinant human PTP1B using p-NPP as substrate incubated for 30 mins by absorbance based microplate reader

| Structure (SMILES) | Ki [1] | IC50 [2] |
| --- | --- | --- |
| CC1(C)[C@@H](O)CC[C@@]2(C)[C@H]1CC[C@@]1(C)CC3=CC[C@H]4C(C)(C)[C@H](O)CC[C@]4(C)[C@H]3CC[C@@H]12 | 11.9 µM | 4.65 µM |
| CC1(C)[C@@H](O)CC[C@@]2(C)[C@H]1CC[C@@]1(C)CC3=CC[C@H]4C(C)(C)[C@@H](O)CC[C@]4(C)[C@H]3CC[C@@H]12 | 12.2 µM | 7.28 µM |
| CC(=O)O[C@H]1CC[C@@]2(C)[C@@H](CC[C@]3(O)C[C@]4(C)CC[C@H]5C(C)(C)[C@@H](O)CC[C@]5(C)[C@H]4CC[C@@H]32)C1(C)C | – | > 30 µM |
| CC(=O)O[C@H]1CC[C@@]2(C)[C@@H](CC[C@@]3(C)CC4=CC[C@H]5C(C)(C)[C@@H](O)CC[C@]5(C)[C@H]4CC[C@@H]32)C1(C)C | – | > 30 µM |

From ChEMBL document CHEMBL6127021, “Inhibition of protein tyrosine phosphatase 1B by serratane triterpenes from Huperzia serrata and their molecular docking study” (Bioorg Med Chem Lett, 2024)
